According to the supplement of paper PMC10307832:

Assays:
Test in all cases: relative viability (nuclei count vs DMSO), 5 days (fraction); higher = more cells survive
BAM7 + Palbociclib = compound: CCOC1=CC=CC=C1N=NC2=C(NN(C2=O)C3=NC(=CS3)C4=CC=CC=C4)C [BAM7] + CC(=O)c1c(C)c2cnc(Nc3ccc(N4CCNCC4)cn3)nc2n(C2CCCC2)c1=O [Palbociclib] (partner 0.5 µM)
How it was run: (§1)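 Lung cancer cell lines, seeded in 1536-well plates, were treated the following day by pin tool with a single drug or with five library-drug doses (not always all listed) in √10 steps on top of a fixed anchor-drug dose. Cells were fixed and nuclei stained in one step after 5 days, and nuclei were counted. Relative viability is the nuclei count for treated wells divided by that for vehicle wells, reported as medians of duplicate plates.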

[1] = compound: CCn1c(-c2nonc2N)nc2c(C#CC(C)(C)O)ncc(OC[C@H]3CCCNC3)c21 + CC(=O)c1c(C)c2cnc(Nc3ccc(N4CCNCC4)cn3)nc2n(C2CCCC2)c1=O [Palbociclib] (partner 0.5 µM)
How it was run: as §1

BAM7 + AZD7762 = compound: CCOC1=CC=CC=C1N=NC2=C(NN(C2=O)C3=NC(=CS3)C4=CC=CC=C4)C [BAM7] + NC(=O)Nc1cc(-c2cccc(F)c2)sc1C(=O)N[C@H]1CCCNC1 [AZD7762] (partner 0.2 µM)
How it was run: as §1

BAM7 + Luminespib = compound: CCOC1=CC=CC=C1N=NC2=C(NN(C2=O)C3=NC(=CS3)C4=CC=CC=C4)C [BAM7] + CCNC(=O)c1noc(-c2cc(C(C)C)c(O)cc2O)c1-c1ccc(CN2CCOCC2)cc1 [Luminespib] (partner 0.01 µM)
How it was run: as §1

Row | Cell Line | relative viability (BAM7 + Palbociclib; first compound 0.5 µM) | relative viability (BAM7 + Palbociclib; first compound 5 µM) | relative viability (BAM7 + Palbociclib; first compound 15.81 µM) | relative viability (BAM7 + Palbociclib; first compound 50 µM) | relative viability ([1]; first compound 0.01 µM) | relative viability ([1]; first compound 0.03162 µM) | relative viability ([1]; first compound 0.1 µM) | relative viability ([1]; first compound 0.3162 µM) | relative viability ([1]; first compound 1 µM) | relative viability (BAM7 + AZD7762; first compound 0.5 µM) | relative viability (BAM7 + AZD7762; first compound 5 µM) | relative viability (BAM7 + AZD7762; first compound 15.81 µM) | relative viability (BAM7 + AZD7762; first compound 50 µM) | relative viability (BAM7 + Luminespib; first compound 0.5 µM) | relative viability (BAM7 + Luminespib; first compound 5 µM) | relative viability (BAM7 + Luminespib; first compound 15.81 µM) | relative viability (BAM7 + Luminespib; first compound 50 µM)
1 | NCI-H1651 | 0.528 | 0.52 | 0.512 | 0.508 | 0.518 | 0.528 | 0.505 | 0.49 | 0.56 | 0.444 | 0.46 | 0.473 | 0.45 | 0.761 | 0.836 | 0.853 | 0.734
2 | HARA | 0.253 | 0.224 | 0.229 | 0.243 | 0.303 | 0.344 | 0.269 | 0.268 | 0.209 | 0.21 | 0.269 | 0.356 | 0.195 | 0.678 | 0.868 | 0.682 | 0.66
3 | NCI-H1650 | 0.351 | 0.268 | 0.304 | 0.456 | 0.382 | 0.291 | 0.396 | 0.153 | 0.276 | – | – | – | – | 0.171 | 0.191 | 0.19 | 0.2
4 | NCI-H1395 | 0.578 | 0.627 | 0.606 | 0.614 | 0.605 | 0.527 | 0.604 | 0.495 | 0.509 | 0.395 | 0.407 | 0.394 | 0.421 | 0.713 | 0.929 | 0.514 | 0.673
5 | LU99A | 0.425 | 0.372 | 0.383 | 0.414 | 0.37 | 0.45 | 0.388 | 0.406 | 0.423 | 0.371 | 0.438 | 0.35 | 0.293 | 0.251 | 0.316 | 0.207 | 0.247
